Reference: patent publication US10398727B2, “Methods for the treatment and prevention of asbestos-related diseases” (University of Technology, Sydney, priority 2014, dated 2019)

Test system: crocidolite-induced mesothelioma in MexTAg299 transgenic mice
Assay: Effect of CM on asbestos-induced mesothelioma in MexTAg299 mice (Example 2)
Conditions: mouse, in vivo
Method: MexTAg299 transgenic mice are suitable for testing asbestos-induced mesothelioma with 100% incidence. MexTAg mice exposed to asbestos develop cancer that faithfully replicates key features of the pathogenesis of human mesothelioma.
Controls were normal saline (0.9%) or CM at 90 mg/kg (3 mice each).

clinoptilolite [CM]
Mesothelioma (number of mice): 0
